Here are results for two compounds from patent US7358359B2, “Antibacterial agents” (University of Washington, priority 2003, dated 2008).

Holding throughout (assay type): cell-based
The subject of test [1] is Pseudomonas aeruginosa cystic fibrosis isolate 3198. Nature of the test: MIC vs cystic fibrosis isolate of P. aeruginosa 3198 (sensitive to most antibacterials). Particulars: strain 3198, Sensitive, LpxC inhibitors, MIC key class. Put shortly:
(§1)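 Organisms revived from frozen stocks were tested by NCCLS broth microdilution against 2-fold drug series in cation-adjusted Mueller-Hinton broth. Plates held 35° C. for 18-24 hours; lowest concentration preventing visible growth recorded as MIC.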

Test [2] deals with non-CF clinical isolates of P. aeruginosa. Nature of the test: MIC vs non-CF clinical isolates of P. aeruginosa. Conditions: Pseudomonas aeruginosa, MIC key class. Put shortly: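 Clinical isolates from trials and US hospitals were tested by broth microdilution in cation-adjusted Mueller-Hinton broth. Lowest concentration without visible growth after overnight (18-24 h) incubation at 35° C. defined the MIC.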

Test [3] relates to Klebsiella pneumoniae. Nature of the test: MIC vs enteric organisms: Klebsiella pneumoniae. Conditions: K. pneu., MIC key class. Put shortly:
as §1

In test [4] the test system is S. aureus 29213. Nature of the test: MIC broth microdilution, standard panel: S. aureus 29213. Particulars: Staphylococcus aureus, standard panel of organisms. In a few lines: (§2)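 Broth microdilution per NCCLS guidelines in cation-adjusted Mueller-Hinton broth with 2-fold serial drug dilutions; final inoculum 3×10^5–7×10^5 CFU/mL. Incubated 18-24 hours at 35° C. in ambient air; MIC taken as lowest concentration preventing visible growth.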
For orientation: In broth dilution the organism is exposed to a series of concentrations in liquid medium.

Test [5] concerns Proteus mirabilis. Nature of the test: MIC vs enteric organisms: Proteus mirabilis. Particulars: P. mir., MIC key class. In a few lines: as §1
Test [6] relates to Pseudomonas aeruginosa cystic fibrosis isolate 3236. The test can be described thus: MIC vs cystic fibrosis isolate of P. aeruginosa 3236 (sensitive to most antibacterials). Conditions: strain 3236, Sensitive, LpxC inhibitors, MIC key class. Put shortly: as §1
The subject of test [7] is Escherichia coli. Nature of the test: MIC vs enteric organisms: Escherichia coli clinical isolates. Particulars: Escherichia coli, MIC key class, read-out: MIC. In a few lines:
as §1

Test [8] deals with Stenotrophomonas maltophilia. Nature of the test: MIC vs non-fermenting organisms: Stenotrophomonas maltophilia. Conditions: Stenotrophomonas maltophilia, S. malt.; MIC key class; read-out: MIC. In a few lines: as §1
Test [9] deals with Pseudomonas aeruginosa cystic fibrosis isolate 2196. The test can be described thus: MIC vs cystic fibrosis isolate of P. aeruginosa 2196 (resistant to ciprofloxacin). Particulars: strain 2196, Cipro R, LpxC inhibitors, MIC key class. In a few lines: as §1
The subject of test [10] is Serratia marcescens. The test can be described thus: MIC vs enteric organisms: Serratia marcescens. Particulars: S. marc., MIC key class. Put shortly: as §1
The subject of test [11] is Klebsiella oxytoca. Nature of the test: MIC vs enteric organisms: Klebsiella oxytoca. Conditions: K. oxy., MIC key class. Put shortly: as §1
In test [12] the test system is Acinetobacter calcoaceticus. The test can be described thus: MIC vs non-fermenting organisms: Acinetobacter calcoaceticus. Conditions: Acinet. calc., MIC key class. In a few lines:
as §1

Test [13] concerns Enterobacter aerogenes. The test can be described thus: MIC vs enteric organisms: Enterobacter aerogenes. Conditions: Klebsiella aerogenes; E. aer.; MIC key class. Put shortly:
as §1

Test [14] has as its system Pseudomonas aeruginosa cystic fibrosis isolate 3317. The test can be described thus: MIC vs cystic fibrosis isolate of P. aeruginosa 3317 (resistant to aztreonam). Conditions: strain 3317, Aztr. R, LpxC inhibitors, MIC key class. In a few lines:
as §1

Test [15] relates to E. coli 25922. The test can be described thus: MIC broth microdilution, standard panel: E. coli 25922. Conditions: Escherichia coli, standard panel of organisms. Put shortly: as §2
For test [16], the system named is Pseudomonas aeruginosa cystic fibrosis isolate 3224. Nature of the test: MIC vs cystic fibrosis isolate of P. aeruginosa 3224. Conditions: strain 3224, Tobra R, LpxC inhibitors, MIC key class. In a few lines:
as §1

The subject of test [17] is Enterobacter cloacae. Nature of the test: MIC vs enteric organisms: Enterobacter cloacae. Conditions: E. clo., MIC key class. In a few lines:
as §1

Test [18] deals with P. aeruginosa 27853. The test can be described thus: MIC broth microdilution, standard panel: P. aeruginosa 27853. Conditions: Pseudomonas aeruginosa, standard panel of organisms. Put shortly:
as §2

In test [19] the test system is P. aeruginosa PAO200 mexAB. The test can be described thus: MIC broth microdilution, standard panel: P. aeruginosa PAO200 mexAB. Particulars: Pseudomonas aeruginosa, PAO200MEXAB, read-out: MIC P. aeruginosa PAO200 mexAB. Put shortly: as §2
Test [20] concerns Alcaligenes xylosoxidans. The test can be described thus: MIC vs non-fermenting organisms: Alcaligenes xylosoxidans. Conditions: Achromobacter xylosoxidans; Alcal. xyl; MIC key class. In a few lines: as §1

Values after ≈ are worked out from the molar mass of the structure shown. Read-outs that look alike come from different tables or passages of the source.

The MIC is the least concentration at which growth counts as inhibited. For the compound `C[C@@H](O)[C@H](NC(=O)c1ccc(-c2ccc(Br)cc2)cc1)C(=O)NO` [Example 315, 4′-bromo-N-{(1S,2R)-2-hydroxy-1-[(hydroxyamino)carbonyl]propyl}-1,1′-biphenyl-4-carboxamide], the minimum inhibitory concentration (MIC) is less than 6.25 mg/L in test [1]; less than 6.25 mg/L in [2] (P. aer 12307); less than 6.25 mg/L in test [2] (P. aer 27853); less than 6.25 mg/L in test [2] (P. aer psa-6b); less than 6.25 mg/L in test [2] (PAO1, P. aer. PAO1); greater than 50 mg/L in test [3]. Also, the MIC in test [4] is greater than 50 mg/L; in test [5], greater than 50 mg/L; in [6], less than 6.25 mg/L; in [7] (E. coli 1619), less than 6.25 mg/L; in [7] (E. coli 2788) it was less than 6.25 mg/L; in test [8] it was less than 6.25 mg/L. Moreover, the MIC is less than 6.25 mg/L in test [9]; 6.25 to 50 mg/L (≈ 15.9 to 127 µM) in test [10]; greater than 50 mg/L in test [11]; greater than 50 mg/L in [12]; greater than 50 mg/L in test [13]; less than 6.25 mg/L in test [14]. Also, the MIC in test [15] is less than 6.25 mg/L; in test [16] it was less than 6.25 mg/L; in test [17], less than 6.25 mg/L; in test [18], less than 6.25 mg/L; in test [19], less than 6.25 mg/L; in test [20], 6.25 to 50 mg/L (≈ 15.9 to 127 µM).

Consider `C[C@@H](O)[C@H](NC(=O)c1ccc(C#Cc2ccccc2)cc1)C(=O)NO` [Example 12, N-(1-(N-hydroxycarbamoyl)(1S,2R)-2-hydroxypropyl)[4-(2-phenylethynyl)phenyl]carboxamide], for which the MIC in [1] was less than 6.25 mg/L; in test [2] (P. aer 12307) it was less than 6.25 mg/L; in [2] (P. aer 27853) it was less than 6.25 mg/L; in [2] (P. aer psa-6b), less than 6.25 mg/L; in test [2] (PAO1, P. aer. PAO1), less than 6.25 mg/L; in test [3] it was less than 6.25 mg/L. The MIC in [4] was greater than 50 mg/L; in test [5], less than 6.25 mg/L; in test [6], less than 6.25 mg/L; in test [7] (E. coli 1619) it was less than 6.25 mg/L; in [7] (E. coli 2788), less than 6.25 mg/L; in test [8] it was less than 6.25 mg/L. Moreover, the MIC is 6.25 to 50 mg/L (≈ 18.5 to 148 µM) in [9]; less than 6.25 mg/L in test [10]; less than 6.25 mg/L in test [11]; less than 6.25 mg/L in test [12]; greater than 50 mg/L in test [13]; less than 6.25 mg/L in [14]. Moreover, the MIC in [15], in test [16], in [17], in test [18], in [19] and in test [20] was less than 6.25 mg/L each time.
